Our source for the half-life, Cavg and Cmax values is ChEMBL document CHEMBL3832021, “DailyMed|setid=e42c6a90-37f6-44f5-8112-126c2c4a4b2c | TESTIM- testosterone gel | A-S Medication Solutions LLC”.

Data set [1] in a line: Evaluation of excretion and half-life for Testosterone following intramusculary administration of testosterone doses. In kind it is ADME, organism-based. The settings on record: human, in vivo, im; dosed compound id 32, dosed compound name TESTOSTERONE, gender male, tissue Plasma.
In another data set the test system is Homo sapiens. As to the kind of experiment: Mean steady-state pharmacokinetic parammeters for Testosterone evaluated on day 30 following multiple topical administration of Testosterone gel to adult male subjetcs with testosterone levels <= 300ng/dL. The following applies: in vivo, topical_or_ocular, dosed compound id 32, dosed compound name TESTOSTERONE, gender male, regimen Once daily, tissue Serum; for Cavg: route topical. Also on record: dose 100 mg, dose 50 mg, route topical. In kind it is ADME, organism-based.

SMILES strings stand for the structures. “And” between values parts separate entries of the source, which are not always exact repeats. Identical values can stand only once.

For orientation: half-life means how long it takes for the measured level to halve. The low end stands for fast loss, the high end for slow loss. Broadly, the Cmax is the peak of the concentration-time curve. As for `C[C@]12CC[C@H]3[C@@H](CCC4=CC(=O)CC[C@@]43C)[C@@H]1CC[C@@H]2O` [TESTOSTERONE], the half-life in data set [1] was in the range of 10 to 100 min. Also, the Cavg with Homo sapiens (dose 50 mg) is recorded as 365 ng/dL; in the data set on Homo sapiens (dose 100 mg), 612 ng/dL. In addition, the Cmax in the data set with Homo sapiens is 538 ng/dL and 897 ng/dL.
